Assay results taken from US8653263B2 (Janssen Pharmaceutica, priority 2009, dated 2014).

molecular target: human orexin-2 receptor (Homo sapiens (Human), UniProt O43614); assay: Human orexin 2 receptor radioligand binding ([3H]-EMPA competition); conditions: HEK293 cells stably expressing human orexin-2 receptor; [3H]-EMPA 5 nM final; apparent Ki=IC50/(1+C/Kd), Kd=2 nM; read-out: OR 2 Ki
Sequence (O43614 whole entry): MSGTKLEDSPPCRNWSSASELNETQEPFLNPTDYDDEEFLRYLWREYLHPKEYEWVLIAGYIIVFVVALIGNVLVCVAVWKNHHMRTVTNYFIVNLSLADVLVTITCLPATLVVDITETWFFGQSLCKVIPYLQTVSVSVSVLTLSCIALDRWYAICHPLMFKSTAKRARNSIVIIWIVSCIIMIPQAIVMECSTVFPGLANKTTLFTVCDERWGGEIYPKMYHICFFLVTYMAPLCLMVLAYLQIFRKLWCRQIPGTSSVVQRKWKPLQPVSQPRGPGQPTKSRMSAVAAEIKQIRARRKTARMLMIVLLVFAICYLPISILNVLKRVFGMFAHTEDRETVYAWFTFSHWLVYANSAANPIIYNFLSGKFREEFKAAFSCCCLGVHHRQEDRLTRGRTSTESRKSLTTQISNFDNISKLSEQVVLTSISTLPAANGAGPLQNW

Row | Ki [µM] | Structure (SMILES)
1 | 0.289 | O=C(c1ccccc1-c1ccccc1)N1CC2CN(c3nccc(-c4ccccc4)n3)CC2C1 (stereo not shown) [Example 164, 2-(Biphenyl-2-ylcarbonyl)-5-(4-phenylpyrimidin-2-yl)octahydropyrrolo[3,4-c]pyrrole]
2 | 0.852 | COc1cccc(OC)c1C(=O)N1CC2CN(c3cnc4ccccc4n3)CC2C1 (stereo not shown) [Example 165, 2-{5-[(2,6-Dimethoxyphenyl)carbonyl]hexahydropyrrolo[3,4-c]pyrrol-2(1H)-yl}quinoxaline]
3 | 0.465 | COc1cccc(OC)c1C(=O)N1CC2CN(c3nccc(-c4ccccc4)n3)CC2C1 (stereo not shown) [Example 166, 2-[(2,6-Dimethoxyphenyl)carbonyl]-5-(4-phenylpyrimidin-2-yl)octahydropyrrolo[3,4-c]pyrrole]
4 | 0.411 | COc1ccc(C(=O)N2CC3CN(c4nccc(-c5ccccc5)n4)CC3C2)c(OC)c1 (stereo not shown) [Example 167, 2-[(2,4-Dimethoxyphenyl)carbonyl]-5-(4-phenylpyrimidin-2-yl)octahydropyrrolo[3,4-c]pyrrole]
5 | 0.066 | O=C(c1ccccc1-c1ccccc1)N1CC2CN(c3cnc4ccccc4n3)CC2C1 (stereo not shown) [Example 168, 2-[5-(Biphenyl-2-ylcarbonyl)hexahydropyrrolo[3,4-c]pyrrol-2(1H)-yl]quinoxaline]
6 | 0.595 | O=C(c1ccccc1-c1ccccc1)N1CC2CN(c3nc4ccccc4s3)CC2C1 (stereo not shown) [Example 169, 2-[5-(Biphenyl-2-ylcarbonyl)hexahydropyrrolo[3,4-c]pyrrol-2(1H)-yl]-1,3-benzothiazole]
7 | 0.945 | COc1ccc(C(=O)N2CC3CN(c4cc(C)c5ccccc5n4)CC3C2)c(OC)c1 (stereo not shown) [Example 170, 2-{5-[(2,4-Dimethoxyphenyl)carbonyl]hexahydropyrrolo[3,4-c]pyrrol-2(1H)-yl}-4-methylquinoline]
8 | 0.78 | COc1ccc(C(=O)N2CC3CN(c4nc5ccc(OC)cc5s4)CC3C2)c(OC)c1 (stereo not shown) [Example 171, 2-{5-[(2,4-Dimethoxyphenyl)carbonyl]hexahydropyrrolo[3,4-c]pyrrol-2(1H)-yl}-6-methoxy-1,3-benzothiazole]
9 | 0.45 | COc1ccc(C(=O)N2CC3CN(c4nc5ccc(C)cc5s4)CC3C2)c(OC)c1 (stereo not shown) [Example 172, 2-{5-[(2,4-Dimethoxyphenyl)carbonyl]hexahydropyrrolo[3,4-c]pyrrol-2(1H)-yl}-6-methyl-1,3-benzothiazole]
10 | 0.95 | Cc1cccc(N2CC3CN(C(=O)c4ccccc4-c4ccccc4)CC3C2)n1 (stereo not shown) [Example 173, 2-(Biphenyl-2-ylcarbonyl)-5-(6-methylpyridin-2-yl)octahydropyrrolo[3,4-c]pyrrole]
11 | 0.729 | Cc1ccnc(N2CC3CN(C(=O)c4ccccc4-c4ccccc4)CC3C2)n1 (stereo not shown) [Example 174, 2-(Biphenyl-2-ylcarbonyl)-5-(4-methylpyrimidin-2-yl)octahydropyrrolo[3,4-c]pyrrole]
12 | 0.669 | O=C(c1ccccc1-c1ccccc1)N1CC2CN(c3ccc4ccccc4n3)CC2C1 (stereo not shown) [Example 175, 2-[5-(Biphenyl-2-ylcarbonyl)hexahydropyrrolo[3,4-c]pyrrol-2(1H)-yl]quinoline]
13 | 0.236 | O=C(c1ccccc1-c1ccccc1)N1CC2CN(c3nc4ccc(F)cc4s3)CC2C1 (stereo not shown) [Example 176, 2-[5-(Biphenyl-2-ylcarbonyl)hexahydropyrrolo[3,4-c]pyrrol-2(1H)-yl]-6-fluoro-1,3-benzothiazole]
14 | 0.339 | COc1ccnc(N2CC3CN(C(=O)c4ccccc4-c4ccccc4)CC3C2)n1 (stereo not shown) [Example 177, 2-(Biphenyl-2-ylcarbonyl)-5-(4-methoxypyrimidin-2-yl)octahydropyrrolo[3,4-c]pyrrole]
15 | 0.123 | Cc1cc(N2CC3CN(C(=O)c4ccccc4-c4ccccc4)CC3C2)nc2ccccc12 (stereo not shown) [Example 178, 2-[5-(Biphenyl-2-ylcarbonyl)hexahydropyrrolo[3,4-c]pyrrol-2(1H)-yl]-4-methylquinoline]
16 | 9 | COc1ccc(C(=O)N2CC3CN(c4nccc(OC)n4)CC3C2)c(OC)c1 (stereo not shown) [Example 179, (2,4-Dimethoxy-phenyl)-[5-(4-methoxy-pyrimidin-2-yl)-hexahydro-pyrrolo[3,4-c]pyrrol-2-yl]-methanone]
17 | 2.3 | COc1ccccc1C(=O)N1CC2CN(c3nc4ccccc4o3)CC2C1 (stereo not shown) [Example 180, (5-Benzooxazol-2-yl-hexahydro-pyrrolo[3,4-c]pyrrol-2-yl)-(2-methoxy-phenyl)-methanone]
18 | 3.56 | O=C(c1ccccc1-c1cccnc1)N1CC2CN(c3cnc4ccccc4n3)CC2C1 (stereo not shown) [Example 181, (2-Pyridin-3-yl-phenyl)-(5-quinoxalin-2-yl-hexahydro-pyrrolo[3,4-c]pyrrol-2-yl)-methanone]
19 | 2.2 | Cc1cc(C)nc(N2CC3CN(C(=O)c4ccccc4-c4ncc[nH]4)CC3C2)n1 (stereo not shown) [Example 182, [5-(4,6-Dimethyl-pyrimidin-2-yl)-hexahydro-pyrrolo[3,4-c]pyrrol-2-yl]-[2-(1H-imidazol-2-yl)-phenyl]-methanone]
20 | 5 | COc1ccc(C(=O)N2CC3CN(c4nc5ccccc5o4)CC3C2)c(OC)c1 (stereo not shown) [Example 183, (5-Benzooxazol-2-yl-hexahydro-pyrrolo[3,4-c]pyrrol-2-yl)-(2,4-dimethoxy-phenyl)-methanone]
21 | 1.04 | O=C(c1ccccc1-c1ccccc1)N1CC2CN(c3nc4ccccc4o3)CC2C1 (stereo not shown) [Example 184, (5-Benzooxazol-2-yl-hexahydro-pyrrolo[3,4-c]pyrrol-2-yl)-biphenyl-2-yl-methanone]
22 | 9 | COc1ccc(C(=O)N2CC3CN(c4cccc(C)n4)CC3C2)c(OC)c1 (stereo not shown) [Example 185, (2,4-Dimethoxy-phenyl)-[5-(6-methyl-pyridin-2-yl)-hexahydro-pyrrolo[3,4-c]pyrrol-2-yl]-methanone]
23 | 10 | COc1ccc(C(=O)N2CC3CN(c4nccc(C)n4)CC3C2)c(OC)c1 (stereo not shown) [Example 186, (2,4-Dimethoxy-phenyl)-[5-(4-methyl-pyrimidin-2-yl)-hexahydro-pyrrolo[3,4-c]pyrrol-2-yl]-methanone]
24 | 2.28 | COc1ccc2nc(N3CC4CN(C(=O)c5ccccc5-c5ccccc5)CC4C3)sc2c1 (stereo not shown) [Example 187, Biphenyl-2-yl-[5-(6-methoxy-benzothiazol-2-yl)-hexahydro-pyrrolo[3,4-c]pyrrol-2-yl]-methanone]
25 | 2.61 | Cc1ccc2nc(N3CC4CN(C(=O)c5ccccc5-c5ccccc5)CC4C3)sc2c1 (stereo not shown) [Example 188, Biphenyl-2-yl-[5-(6-methyl-benzothiazol-2-yl)-hexahydro-pyrrolo[3,4-c]pyrrol-2-yl]-methanone]
26 | 1.6 | COc1cccc(OC)c1C(=O)N1CC2CN(c3nc4ccc(Cl)cc4s3)CC2C1 (stereo not shown) [Example 189, [5-(6-Chloro-benzothiazol-2-yl)-hexahydro-pyrrolo[3,4-c]pyrrol-2-yl]-(2,6-dimethoxy-phenyl)-methanone]
27 | 1.3 | O=C(c1ccccc1-c1ccccc1)N1CC2CN(c3nc4ccc(Cl)cc4s3)CC2C1 (stereo not shown) [Example 190, Biphenyl-2-yl-[5-(6-chloro-benzothiazol-2-yl)-hexahydro-pyrrolo[3,4-c]pyrrol-2-yl]-methanone]

Row | Structure (SMILES) | Ki [µM]
28 | COc1ccc(C(=O)N2CC3CN(c4cnc5ccccc5n4)CC3C2)c(OC)c1 (stereo not shown) [Example 191, (2,4-Dimethoxy-phenyl)-(5-quinoxalin-2-yl-hexahydro-pyrrolo[3,4-c]pyrrol-2-yl)-methanone] | 2.66
